Laboratory results as given in ChEMBL document CHEMBL1201861, “Genomics of Drug Sensitity in Cancer screening data, Wellcome Trust Sanger Institute”.

Experiments:
Assay in all cases: cells
NOMO-1 = assay type: functional, cell-based, Homo sapiens; conditions: Homo sapiens, NOMO-1;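 further: growth inhibition of human NOMO-1 cells measured by a cell viability assay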
Description: SANGER: Inhibition of human NOMO-1 cell growth in a cell viability assay.

LB2518-MEL = assay type: functional, cell-based; conditions: Homo sapiens;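 further: growth inhibition of human LB2518-MEL cells, measured with a cell viability assay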
Description: SANGER: Inhibition of human LB2518-MEL cell growth in a cell viability assay.

NCI-H1304 = assay type: functional, cell-based, Homo sapiens; conditions: Homo sapiens, NCI-H1304;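 further: growth inhibition of the cancer cell line, measured in a cell viability assay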
Description: SANGER: Inhibition of human NCI-H1304 cell growth in a cell viability assay.

AM-38 = assay type: functional, cell-based, Homo sapiens; conditions: Homo sapiens, AM-38;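 further: growth inhibition of AM-38 cells of human origin, read out by a cell viability assay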
Description: SANGER: Inhibition of human AM-38 cell growth in a cell viability assay.

A253 cell line = assay type: functional, cell-based, Homo sapiens; conditions: Homo sapiens, A253;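 further: growth inhibition of A253 cells, read out with a cell viability assay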
Description: SANGER: Inhibition of human A253 cell growth in a cell viability assay.

A3-KAW = assay type: functional, cell-based, Homo sapiens; conditions: Homo sapiens, A3-KAW;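 further: growth inhibition of human A3-KAW cells, read out with a cell viability assay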
Description: SANGER: Inhibition of human A3-KAW cell growth in a cell viability assay.

D-502MG = assay type: functional, cell-based, Homo sapiens; conditions: Homo sapiens, D-502MG
Description: SANGER: Inhibition of human D-502MG cell growth in a cell viability assay.

NKM-1 = assay type: functional, cell-based, Homo sapiens; conditions: Homo sapiens, NKM-1;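 further: growth inhibition of NKM-1 cells, read out with a cell viability assay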
Description: SANGER: Inhibition of human NKM-1 cell growth in a cell viability assay.

HL-60 = assay type: functional, cell-based, Homo sapiens; conditions: Homo sapiens, HL-60;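 further: growth inhibition of human HL-60 cells, read out with a cell viability assay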
Description: SANGER: Inhibition of human HL-60 cell growth in a cell viability assay.

NCI-H1581 = assay type: functional, cell-based, Homo sapiens; conditions: Homo sapiens, NCI-H1581;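 further: cell growth inhibition read out by a viability assay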
Description: SANGER: Inhibition of human NCI-H1581 cell growth in a cell viability assay.

DSH1 = assay type: functional, cell-based; conditions: Homo sapiens;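 further: growth inhibition of human DSH1 cells, measured with a cell viability readout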
Description: SANGER: Inhibition of human DSH1 cell growth in a cell viability assay.

OS-RC-2 = assay type: functional, cell-based, Homo sapiens; conditions: Homo sapiens, OS-RC-2;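 further: growth inhibition of human OS-RC-2 cells, measured by a cell viability assay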
Description: SANGER: Inhibition of human OS-RC-2 cell growth in a cell viability assay.

SK-UT-1 = assay type: functional, cell-based, Homo sapiens; conditions: Homo sapiens, SK-UT-1;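 further: growth inhibition of SK-UT-1 cells, measured by a cell viability assay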
Description: SANGER: Inhibition of human SK-UT-1 cell growth in a cell viability assay.

CW-2 = assay type: functional, cell-based, Homo sapiens; conditions: Homo sapiens, CW-2;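 further: growth inhibition of CW-2 cells, read out by a cell viability assay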
Description: SANGER: Inhibition of human CW-2 cell growth in a cell viability assay.

MHH-PREB-1 = assay type: functional, cell-based, Homo sapiens; conditions: Homo sapiens, MHH-PREB-1;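 further: cell viability assay measuring inhibition of proliferation of human MHH-PREB-1 cells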
Description: SANGER: Inhibition of human MHH-PREB-1 cell growth in a cell viability assay.

TGW = assay type: functional, cell-based, Homo sapiens; conditions: Homo sapiens, TGW;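 further: growth inhibition of human TGW cells, read out with a cell viability assay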
Description: SANGER: Inhibition of human TGW cell growth in a cell viability assay.

ALL-PO = assay type: functional, cell-based, Homo sapiens; conditions: Homo sapiens, ALL-PO;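 further: growth inhibition of ALL-PO cells, read out by a cell viability assay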
Description: SANGER: Inhibition of human ALL-PO cell growth in a cell viability assay.

SK-LMS-1 = assay type: functional, cell-based, Homo sapiens; conditions: Homo sapiens, SK-LMS-1;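 further: growth inhibition of human SK-LMS-1 cells, read out with a cell viability assay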
Description: SANGER: Inhibition of human SK-LMS-1 cell growth in a cell viability assay.

NCI-H446 = assay type: functional, cell-based, Homo sapiens; conditions: Homo sapiens, NCI-H446;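 further: growth inhibition of NCI-H446 cells determined by a cell viability assay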
Description: SANGER: Inhibition of human NCI-H446 cell growth in a cell viability assay.

NCI-H1838 = assay type: functional, cell-based, Homo sapiens; conditions: Homo sapiens, NCI-H1838;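 further: growth inhibition of NCI-H1838 cells, determined with a cell viability readout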
Description: SANGER: Inhibition of human NCI-H1838 cell growth in a cell viability assay.

COLO-320-HSR = assay type: functional, cell-based, Homo sapiens; conditions: Homo sapiens, COLO-320-HSR;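 further: growth inhibition of COLO-320-HSR cells, determined with a cell viability assay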
Description: SANGER: Inhibition of human COLO-320-HSR cell growth in a cell viability assay.

SW982 = assay type: functional, cell-based; conditions: Homo sapiens;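 further: growth inhibition of SW982 cells, read out with a cell viability assay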
Description: SANGER: Inhibition of human SW982 cell growth in a cell viability assay.

TE-1 = assay type: functional, cell-based, Homo sapiens; conditions: Homo sapiens, TE-1;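 further: growth inhibition of the human TE-1 cell line, read out with a cell viability assay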
Description: SANGER: Inhibition of human TE-1 cell growth in a cell viability assay.

KS-1 = assay type: functional, cell-based; conditions: Homo sapiens;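 further: growth inhibition of KS-1 cells, read out with a cell viability assay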
Description: SANGER: Inhibition of human KS-1 cell growth in a cell viability assay.

HT-144 = assay type: functional, cell-based, Homo sapiens; conditions: Homo sapiens, HT-144
Description: SANGER: Inhibition of human HT-144 cell growth in a cell viability assay.

HD-MY-Z = assay type: functional, cell-based, Homo sapiens; conditions: Homo sapiens, HD-MY-Z;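 further: growth inhibition of HD-MY-Z cells, read out with a cell viability assay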
Description: SANGER: Inhibition of human HD-MY-Z cell growth in a cell viability assay.

NB13 = assay type: functional, cell-based, Homo sapiens; conditions: Homo sapiens, NB13;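 further: cell viability readout measuring growth inhibition of human NB13 cells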
Description: SANGER: Inhibition of human NB13 cell growth in a cell viability assay.

KINGS-1 = assay type: functional, cell-based, Homo sapiens; conditions: Homo sapiens, KINGS-1;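 further: cell viability assay measuring suppression of KINGS-1 cell growth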
Description: SANGER: Inhibition of human KINGS-1 cell growth in a cell viability assay.

KM-H2 = assay type: functional, cell-based, Homo sapiens; conditions: Homo sapiens, KM-H2;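 further: growth inhibition of KM-H2 cells, read out by a cell viability assay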
Description: SANGER: Inhibition of human KM-H2 cell growth in a cell viability assay.

LNCaP-Clone-FGC = assay type: functional, cell-based, Homo sapiens; conditions: Homo sapiens, LNCaP-Clone-FGC
Description: SANGER: Inhibition of human LNCaP-Clone-FGC cell growth in a cell viability assay.

Calu-6 = assay type: functional, cell-based, Homo sapiens; conditions: Homo sapiens, Calu-6;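 further: growth of human Calu-6 cells, read out by a cell viability assay, IC50 marking inhibition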
Description: SANGER: Inhibition of human Calu-6 cell growth in a cell viability assay.

MLMA = assay type: functional, cell-based, Homo sapiens; conditions: Homo sapiens, MLMA;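 further: growth inhibition of MLMA cells (human), determined through a cell viability readout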
Description: SANGER: Inhibition of human MLMA cell growth in a cell viability assay.

KURAMOCHI = assay type: functional, cell-based, Homo sapiens; conditions: Homo sapiens, KURAMOCHI;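 further: growth inhibition of KURAMOCHI cells, read out with a cell viability assay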
Description: SANGER: Inhibition of human KURAMOCHI cell growth in a cell viability assay.

LB996-RCC = assay type: functional, cell-based, Homo sapiens; conditions: Homo sapiens, LB996-RCC
Description: SANGER: Inhibition of human LB996-RCC cell growth in a cell viability assay.

MN-60 = assay type: functional, cell-based, Homo sapiens; conditions: Homo sapiens, MN-60;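 further: growth inhibition of the MN-60 cell line, determined with a cell viability assay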
Description: SANGER: Inhibition of human MN-60 cell growth in a cell viability assay.

NCI-H2126 = assay type: functional, cell-based, Homo sapiens; conditions: Homo sapiens, NCI-H2126;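 further: growth inhibition of the cancer cell line, determined with a cell viability readout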
Description: SANGER: Inhibition of human NCI-H2126 cell growth in a cell viability assay.

GCIY = assay type: functional, cell-based, Homo sapiens; conditions: Homo sapiens, GCIY;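 further: growth inhibition of the human GCIY cell line, read out by a cell viability assay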
Description: SANGER: Inhibition of human GCIY cell growth in a cell viability assay.

GT3TKB = assay type: functional, cell-based, Homo sapiens; conditions: Homo sapiens, GT3TKB;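 further: growth inhibition of the cell line, read out with a cell viability assay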
Description: SANGER: Inhibition of human GT3TKB cell growth in a cell viability assay.

EW-1 = assay type: functional, cell-based, Homo sapiens; conditions: Homo sapiens, EW-1;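 further: growth inhibition of the human EW-1 cell line, read out by a cell viability assay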
Description: SANGER: Inhibition of human EW-1 cell growth in a cell viability assay.

EKVX = assay type: functional, cell-based, Homo sapiens; conditions: Homo sapiens, EKVX;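 further: growth inhibition of human EKVX cells, read out with a cell viability assay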
Description: SANGER: Inhibition of human EKVX cell growth in a cell viability assay.

TE-6 = assay type: functional, cell-based, Homo sapiens; conditions: Homo sapiens, TE-6;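 further: growth inhibition of TE-6 cells, read out with a cell viability assay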
Description: SANGER: Inhibition of human TE-6 cell growth in a cell viability assay.

GOTO = assay type: functional, cell-based, Homo sapiens; conditions: Homo sapiens, GOTO;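 further: growth inhibition of GOTO cells, read out by a cell viability assay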
Description: SANGER: Inhibition of human GOTO cell growth in a cell viability assay.

OMC-1 = assay type: functional, cell-based, Homo sapiens; conditions: Homo sapiens, OMC-1;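 further: growth inhibition of the OMC-1 cell line, measured by a cell viability assay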
Description: SANGER: Inhibition of human OMC-1 cell growth in a cell viability assay.

KARPAS-299 = assay type: functional, cell-based, Homo sapiens; conditions: Homo sapiens, KARPAS-299
Description: SANGER: Inhibition of human KARPAS-299 cell growth in a cell viability assay.

NMC-G1 = assay type: functional, cell-based, Homo sapiens; conditions: Homo sapiens, NMC-G1;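 further: growth inhibition of the NMC-G1 cell line, measured with a cell viability read-out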
Description: SANGER: Inhibition of human NMC-G1 cell growth in a cell viability assay.

HOP-62 = assay type: functional, cell-based, Homo sapiens; conditions: Homo sapiens, HOP-62;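 further: cell growth inhibition determined with a viability assay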
Description: SANGER: Inhibition of human HOP-62 cell growth in a cell viability assay.

NCI-H747 = assay type: functional, cell-based, Homo sapiens; conditions: Homo sapiens, NCI-H747;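 further: growth inhibition of human NCI-H747 cells, read out by a cell viability assay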
Description: SANGER: Inhibition of human NCI-H747 cell growth in a cell viability assay.

RPMI-8226 = assay type: functional, cell-based, Homo sapiens; conditions: Homo sapiens, RPMI-8226
Description: SANGER: Inhibition of human RPMI-8226 cell growth in a cell viability assay.

HCE-4 = assay type: functional, cell-based; conditions: Homo sapiens;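 further: cell viability assay measuring inhibition of growth in the human HCE-4 cell line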
Description: SANGER: Inhibition of human HCE-4 cell growth in a cell viability assay.

LB2241-RCC = assay type: functional, cell-based, Homo sapiens; conditions: Homo sapiens, LB2241-RCC;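 further: cell viability assay measuring how strongly the cultured human renal carcinoma line is prevented from growing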
Description: SANGER: Inhibition of human LB2241-RCC cell growth in a cell viability assay.

Work on `CCCCCCCCCCCC1=C(O)C(=O)C=C(O)C1=O` [EMBELIN] yielded an IC50 (NOMO-1) of 12.3 µM, an IC50 (LB2518-MEL) of over 32 µM and an IC50 (NCI-H1304) of over 32 µM. It also gave an IC50 (AM-38) of 12.5 µM, an IC50 (A253 cell line) of 7.75 µM and an IC50 (A3-KAW) of 9.01 µM. It also gave an IC50 (D-502MG) of over 32 µM, an IC50 (NKM-1) of over 32 µM and an IC50 (HL-60) of 8.85 µM. The IC50 (NCI-H1581) was over 32 µM, the IC50 (DSH1) was over 32 µM and the IC50 (OS-RC-2) was 9.34 µM. For the same molecule, the IC50 (SK-UT-1) was 4.69 µM, the IC50 (CW-2) was over 32 µM and the IC50 (MHH-PREB-1) was 10.9 µM. The IC50 (TGW) was over 32 µM, the IC50 (ALL-PO) was 3.65 µM and the IC50 (SK-LMS-1) was 5.64 µM. It also gave an IC50 (NCI-H446) of over 32 µM, an IC50 (NCI-H1838) of over 32 µM and an IC50 (COLO-320-HSR) of 17.1 µM. It also gave an IC50 (SW982) of 7.34 µM, an IC50 (TE-1) of 21.6 µM and an IC50 (KS-1) of 14.5 µM. It also gave an IC50 (HT-144) of 8.74 µM, an IC50 (HD-MY-Z) of 26.9 µM and an IC50 (NB13) of 16.7 µM. It also gave an IC50 (KINGS-1) of over 32 µM, an IC50 (KM-H2) of 26.5 µM and an IC50 (LNCaP-Clone-FGC) of 21.9 µM. It also gave an IC50 (Calu-6) of 4.83 µM, an IC50 (MLMA) of over 32 µM and an IC50 (KURAMOCHI) of 7.06 µM. The IC50 (LB996-RCC) was 14.1 µM, the IC50 (MN-60) was over 32 µM and the IC50 (NCI-H2126) was 27.9 µM. The IC50 (GCIY) was 10.1 µM, the IC50 (GT3TKB) was 3.62 µM and the IC50 (EW-1) was 28.6 µM. It also gave an IC50 (EKVX) of over 32 µM, an IC50 (TE-6) of 24.3 µM and an IC50 (GOTO) of 23.6 µM. For the same molecule, the IC50 (OMC-1) was 12.1 µM, the IC50 (KARPAS-299) was over 32 µM and the IC50 (NMC-G1) was 6.97 µM. The IC50 (HOP-62) was 5.69 µM, the IC50 (NCI-H747) was 14.3 µM and the IC50 (RPMI-8226) was 13.7 µM. The IC50 (HCE-4) was 8.56 µM and the IC50 (LB2241-RCC) was over 32 µM.

With `OC[C@H](Cc1ccccc1)Nc1nc(Oc2ccc3c(c2)CCC3)nc2c1ncn2Cc1ccc(-c2ccccc2)cc1` the IC50 (NOMO-1) was over 10.2 µM, the IC50 (LB2518-MEL) was over 10.2 µM and the IC50 (NCI-H1304) was over 10.2 µM. The IC50 (AM-38) was over 10.2 µM, the IC50 (A253 cell line) was over 10.2 µM and the IC50 (A3-KAW) was 7.38 µM. It also gave an IC50 (D-502MG) of over 10.2 µM, an IC50 (NKM-1) of over 10.2 µM and an IC50 (HL-60) of over 10.2 µM. It also gave an IC50 (NCI-H1581) of over 10.2 µM, an IC50 (DSH1) of 6.82 µM and an IC50 (OS-RC-2) of over 10.2 µM. The IC50 (SK-UT-1) was over 10.2 µM, the IC50 (CW-2) was over 10.2 µM and the IC50 (MHH-PREB-1) was over 10.2 µM. The IC50 (TGW) was over 10.2 µM, the IC50 (ALL-PO) was over 10.2 µM and the IC50 (SK-LMS-1) was 2.94 µM. It also gave an IC50 (NCI-H446) of over 10.2 µM, an IC50 (NCI-H1838) of over 10.2 µM and an IC50 (COLO-320-HSR) of over 10.2 µM. The IC50 (SW982) was over 10.2 µM, the IC50 (TE-1) was over 10.2 µM and the IC50 (KS-1) was over 10.2 µM. It also gave an IC50 (HT-144) of 8.54 µM, an IC50 (HD-MY-Z) of over 10.2 µM and an IC50 (NB13) of 8.09 µM. The IC50 (KINGS-1) was over 10.2 µM, the IC50 (KM-H2) was over 10.2 µM and the IC50 (LNCaP-Clone-FGC) was over 10.2 µM. For the same molecule, the IC50 (Calu-6) was over 10.2 µM, the IC50 (MLMA) was over 10.2 µM and the IC50 (KURAMOCHI) was 3.82 µM. It also gave an IC50 (LB996-RCC) of over 10.2 µM, an IC50 (MN-60) of over 10.2 µM and an IC50 (NCI-H2126) of over 10.2 µM. It also gave an IC50 (GCIY) of over 10.2 µM, an IC50 (GT3TKB) of over 10.2 µM and an IC50 (EW-1) of over 10.2 µM. The IC50 (EKVX) was over 10.2 µM, the IC50 (TE-6) was over 10.2 µM and the IC50 (GOTO) was 5.86 µM. For the same molecule, the IC50 (OMC-1) was over 10.2 µM, the IC50 (KARPAS-299) was over 10.2 µM and the IC50 (NMC-G1) was over 10.2 µM. The IC50 (HOP-62) was 3.45 µM, the IC50 (NCI-H747) was over 10.2 µM and the IC50 (RPMI-8226) was over 10.2 µM. It also gave an IC50 (HCE-4) of 7.47 µM and an IC50 (LB2241-RCC) of over 10.2 µM.
